This experiment relates to 633275-114-R-J1-PDC complex spheroids, viability. Kind of experiment: Anticancer human tumor 633275-114-R-J1-PDC patient-derived endometrial adenocarcinoma cell line growth inhibition [GQUAD]. To be noted: for viability, T/C: stronger effect = lower value. From the text:
DNA G-quadruplex Stabilizer Agents in Combinations in Complex Spheroids
A high-throughput screen of multi-cell type tumor spheroids was designed to identify active combinations of DNA G-quadruplex stabilizer agents and targeted small molecules. Complex spheroids include a stromal component modeled by human endothelial cells (HUVEC) and fibroblasts modeled by human mesenchymal stem cells (MSCs). The concentration ranges selected for each drug and investigational agent were based upon clinically achievable concentrations if the clinical Cmax of the agent was known.
Compounds. The drugs and investigational agents: pidnarulex (CX-5461; NSC782164), APTO-253 (NSC789042), BRACO-19 (NSC847499), peposertib (NSC802822), ceralasertib (NSC780249), elimusertib (NSC800525), camonsertib (NSC841442), AZD-1390 (NSC803789), olaparib (NSC753686), talazoparib (NSC767125), ART-558 (NSC835418), sotorasib (NSC818433), MRTX-1133 (NSC836407), SN-38 (NSC673596), topotecan (NSC609699), etoposide (NSC141540), doxorubicin (NSC123127), gemcitabine (NSC613327), 5-fluorouracil (NSC19893), paclitaxel (NSC125973), vemurafenib (NSC761431), panobinostat (NSC761190), R-306465 (JNJ-16241199; NSC773264), adavosertib (NSC754352), TP-3654 (NSC805149), carboplatin (NSC241240), KSQ-4279 (NSC840948), and staurosporine (NSC755774) were obtained from the National Cancer Institute (NCI) Developmental Therapeutics Program Chemical Repository (34). The FDA-approved anticancer drug set is available from the NCI Developmental Therapeutics Program. […] The stock solutions were prepared in dimethyl sulfoxide (DMSO, Sigma-Aldrich, St. Louis, MO, cat. D2650) at 800-fold the tested concentration and stored at -70 degrees C prior to their use. All drugs and investigational agents were tested over a range starting from a high concentration at or near the clinical Cmax and decreasing in half-log increments. If the clinical Cmax for an agent had not been determined, the highest concentration tested was 10 microM.
2.3 Cell Culture. All cells were maintained in an incubator at 37 degrees C and 5% CO2 with 95% humidity. The PDC lines were cultured according to standard operating procedures established by the NCI PDMR. All PDCs were thawed and cultured in Matrigel-coated flasks prepared with a working solution of 1X Ham's F-12 nutrient mix, without supplementation (Invitrogen, cat. 11765054), 100 U/mL penicillin-streptomycin (Invitrogen, cat. 15140122), and 2.5% Matrigel (Corning Inc., cat. 354248) for the first three passages. The 857933-349-R-J2-PDC line was cultured in 6C/Colon 1B media, which includes advanced DMEM/F-12 (Thermo Fisher Scientific, cat. 12634028), 10 mM HEPES (Thermo Fisher Scientific, cat. 15630080), 1X GlutaMAX supplement (Thermo Fisher Scientific, cat. 35050061), 0.1 mg/mL primocin (InvivoGen, cat. ant-pm-2), 10% defined fetal bovine serum, heat inactivated (HyClone Laboratories Inc., cat. SH30070.03HI), 50% L-WRN conditioned media (ATCC, cat. CRL-3276), 1.25 mM N-Acetyl-L-cysteine (Sigma-Aldrich, cat. A9165), 10 mM nicotinamide (Sigma-Aldrich, cat. N0636), 1X B-27 supplement (Thermo Fisher Scientific, cat. 17504044), 1X N-2 supplement (Thermo Fisher Scientific, cat. 17502048), 10 microM Y-27632 dihydrochloride (Tocris Bioscience, cat. 1254), and 50 ng/mL human EGF recombinant protein (Thermo Fisher Scientific, cat. PHG0311). The 485176-168-R4-J1-PDC line was cultured in Panc media, which includes all 6C/Colon 1B media components plus 100 ng/mL human FGF-10 (Thermo Fisher Scientific, cat. 100-26), 500 nM SB-431542 (Selleckchem, cat. S1067), and gastrin (Tocris, cat. 3006).
[…]

The mark [1] stands for this setting: curve of first compound, second compound 0.0316 µM.
Where [2] appears, read: curve of first compound, second compound 0.1 µM.
[3] abbreviates: curve of first compound, second compound 0.316 µM.
The mark [4] stands for this setting: curve of first compound, second compound 1 µM.
[5] abbreviates: curve of first compound, second compound 3.16 µM.
Where [6] appears, read: curve of first compound, second compound 10 µM.
Setting [7] is: second compound 0.0316 µM, first compound 0.0316 µM.
Where [8] appears, read: second compound 0.0316 µM, first compound 0.1 µM.
Setting [9] is: second compound 0.0316 µM, first compound 0.316 µM.
Where [10] appears, read: second compound 0.0316 µM, first compound 1 µM.
[11] abbreviates: second compound 0.0316 µM, first compound 3.16 µM.
[12] abbreviates: second compound 0.0316 µM, first compound 10 µM.
Setting [13] is: second compound 0.1 µM, first compound 0.0316 µM.
Where [14] appears, read: second compound 0.1 µM, first compound 0.1 µM.
The mark [15] stands for this setting: second compound 0.1 µM, first compound 0.316 µM.
[16] abbreviates: second compound 0.1 µM, first compound 1 µM.
Where [17] appears, read: second compound 0.1 µM, first compound 3.16 µM.
The mark [18] stands for this setting: second compound 0.1 µM, first compound 10 µM.
[19] abbreviates: second compound 0.316 µM, first compound 0.0316 µM.
The mark [20] stands for this setting: second compound 0.316 µM, first compound 0.1 µM.
The mark [21] stands for this setting: second compound 0.316 µM, first compound 0.316 µM.
Where [22] appears, read: second compound 0.316 µM, first compound 1 µM.
The mark [23] stands for this setting: second compound 0.316 µM, first compound 3.16 µM.
The mark [24] stands for this setting: second compound 0.316 µM, first compound 10 µM.
Where [25] appears, read: second compound 1 µM, first compound 0.0316 µM.
The mark [26] stands for this setting: second compound 1 µM, first compound 0.1 µM.
Where [27] appears, read: second compound 1 µM, first compound 0.316 µM.
Setting [28] is: second compound 1 µM, first compound 1 µM.
The mark [29] stands for this setting: second compound 1 µM, first compound 3.16 µM.
The mark [30] stands for this setting: second compound 1 µM, first compound 10 µM.
Setting [31] is: second compound 3.16 µM, first compound 0.0316 µM.
Setting [32] is: second compound 3.16 µM, first compound 0.1 µM.
The mark [33] stands for this setting: second compound 3.16 µM, first compound 0.316 µM.
The mark [34] stands for this setting: second compound 3.16 µM, first compound 1 µM.
Where [35] appears, read: second compound 3.16 µM, first compound 3.16 µM.
The mark [36] stands for this setting: second compound 3.16 µM, first compound 10 µM.
[37] abbreviates: second compound 10 µM, first compound 0.0316 µM.
Where [38] appears, read: second compound 10 µM, first compound 0.1 µM.
[39] abbreviates: second compound 10 µM, first compound 0.316 µM.
[40] abbreviates: second compound 10 µM, first compound 1 µM.
Where [41] appears, read: second compound 10 µM, first compound 3.16 µM.
Setting [42] is: second compound 10 µM, first compound 10 µM.

The text below walks through data of PubChem BioAssay AID2060505 (Molecular Pharmacology Branch, DTP, NCI, 2025).

Molecules are shown by their SMILES. Several values for one entry are separate records, joined by “and”; a condition that tells them apart may be missing. Equal entries are not always repeated. Some results are limits rather than exact numbers.
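Also: spheroids exposed to the agents for seven days.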
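For viability, T/C in this document: percent of DMSO vehicle control viability which is 100%.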

Usually IC50 stands for the concentration needed to halve the response being measured. For orientation: viability, T/C means the ratio of treated to control. As to `COc1cc(C2c3cc4c(cc3C(OC3OC5COC(C)OC5C(O)C3O)C3COC(=O)C23)OCO4)cc(OC)c1O` (stereo not given) + Cc1[nH]c2ccc(F)cc2c1-c1nc2c3cccnc3c3ncccc3c2[nH]1, the IC50 by setting is: under setting [1], 446 nM; under setting [2], 410 nM; under setting [3], 429 nM; under setting [4], 358 nM; under setting [5], 158 nM; under setting [6], 169 nM. Moreover, the viability, T/C was 88.3% under setting [7]; 67.3% under setting [8]; 52.6% under setting [9]; 41.9% under setting [10]; 40% under setting [11]; 30.4% under setting [12]. The viability, T/C reads like this: under setting [13], 87.8%; under setting [14], 72.5%; under setting [15], 50.1%; under setting [16], 41.7%; under setting [17], 39.2%; under setting [18], 30.7%. Besides, the viability, T/C is 85.5% under setting [19]; 69.5% under setting [20]; 51% under setting [21]; 42.2% under setting [22]; 38.3% under setting [23]; 31.3% under setting [24]. Also, the viability, T/C by setting is: under setting [25], 86.5%; under setting [26], 65.2%; under setting [27], 51.6%; under setting [28], 40.8%; under setting [29], 36.1%; under setting [30], 30.8%. Also, the viability, T/C under setting [31] was 64.2%; the viability, T/C under setting [32] was 56.1%; the viability, T/C under setting [33] is 41.7%; the viability, T/C under setting [34] was 36.6%; the viability, T/C under setting [35] is 37.3%; the viability, T/C under setting [36] is 27.8%. In addition, the viability, T/C reads like this: under setting [37], 65.5%; under setting [38], 56.4%; under setting [39], 41.8%; under setting [40], 37.4%; under setting [41], 33.4%; under setting [42], 28.4%.
Turning to `O=C(NO)c1cnc(N2CCN(S(=O)(=O)c3ccc4ccccc4c3)CC2)nc1`, the viability, T/C is 75.3% and 69.1% and 84.1% (compound 0.0316 µM); 61.1% and 65.8% and 72.9% (compound 0.1 µM); 38.8% and 38.6% and 43.8% (compound 0.316 µM); 21.8% (2×) and 19.6% (compound 1 µM); 12.8% and 12.7% and 13.8% (compound 3.16 µM); 5.19% and 5.98% and 4.22% (compound 10 µM). For the same compound, the IC50 (curve of compound) was 177 nM and 198 nM and 252 nM.
As to `O=C(c1cc(Cc2n[nH]c(=O)c3ccccc23)ccc1F)N1CCN(C(=O)C2CC2)CC1`, the viability, T/C (compound 0.0316 µM) was 101% and 96.1% and 100%; the viability, T/C (compound 0.1 µM) was 94.1% and 84.6% and 94%; the viability, T/C (compound 0.316 µM) was 86.2% and 95.4% and 96.1%; the viability, T/C (compound 1 µM) is 85.2% and 91.4% and 78.4%; the viability, T/C (compound 3.16 µM) was 74.8% and 71.8% and 75.2%; the viability, T/C (compound 10 µM) was 58.2% and 52.5% and 61.2%. The IC50 (curve of compound) is over 10000 nM.
Regarding `CC(C)(O)C1CCC(Nc2ccc3ncc(-c4cccc(C(F)(F)F)c4)n3n2)CC1` (stereo not given), the viability, T/C by setting is: (compound 0.0316 µM) 103% and 106% (2×); (compound 0.1 µM) 94.8% and 101% and 89.9%; (compound 0.316 µM) 95.2% and 87.9% and 105%; (compound 1 µM) 68.7% and 71.4% and 61.6%; (compound 3.16 µM) 29.8% and 33.2% and 29.4%; (compound 10 µM) 35% and 33.7% and 39.8%. In addition, the IC50 (curve of compound) was 1810 nM and 2010 nM and 1640 nM.
On to `Nc1ccn(C2OC(CO)C(O)C2(F)F)c(=O)n1` (stereo not given) + CN(C)c1ccc(Nc2c3ccc(NC(=O)CCN4CCCC4)cc3nc3cc(NC(=O)CCN4CCCC4)ccc23)cc1, for which the IC50 is under 31.6 nM under setting [1]; under 31.6 nM under setting [2]; under 31.6 nM under setting [3]; under 31.6 nM under setting [4]; under 31.6 nM under setting [5]; under 31.6 nM under setting [6]. For the same compound, the viability, T/C under setting [7] is 27.4%; the viability, T/C under setting [8] is 20.1%; the viability, T/C under setting [9] is 23.8%; the viability, T/C under setting [10] was 23.6%; the viability, T/C under setting [11] was 20.7%; the viability, T/C under setting [12] is 20.5%. Also, the viability, T/C under setting [13] was 27.1%; the viability, T/C under setting [14] was 20.7%; the viability, T/C under setting [15] was 24%; the viability, T/C under setting [16] is 22.4%; the viability, T/C under setting [17] was 21.5%; the viability, T/C under setting [18] was 19.3%. Further, the viability, T/C was 29.6% under setting [19]; 21% under setting [20]; 25.6% under setting [21]; 22.9% under setting [22]; 19.7% under setting [23]; 17.7% under setting [24]. Moreover, the viability, T/C is 27.7% under setting [25]; 20.1% under setting [26]; 22% under setting [27]; 21.1% under setting [28]; 22.4% under setting [29]; 19.6% under setting [30]. Also, the viability, T/C was 24.6% under setting [31]; 20.6% under setting [32]; 19.3% under setting [33]; 18.6% under setting [34]; 20.6% under setting [35]; 18.6% under setting [36]. Further, the viability, T/C runs as follows: under setting [37], 12.9%; under setting [38], 11.6%; under setting [39], 11.7%; under setting [40], 11.7%; under setting [41], 11%; under setting [42], 9%.
